US4200575A, “7[(2-Thiazolyl)-2-(oxoimino)acetamido]cephalosporin derivatives” (Takeda Chemical Industries, Ltd., priority 1977, dated 1980)

How the values were obtained:
Experiment in all cases: Minimal inhibitory concentration (M.I.C.), agar dilution method
Settings in all cases: TSA, inoculum 10^7 /ml
[1] = test system: P. vulgaris IFO 3988; assay type: cell-based, Proteus vulgaris
From the text: (§1) (a) Determination of minimal inhibitory concentrations (Tables 1 to 8):
(§2) Procedure: agar dilution method

[2] = test system: P. vulgaris GN 4413; assay type: cell-based, Proteus vulgaris
From the text: as §1, §2

[3] = test system: S. aureus 209P; assay type: cell-based, Staphylococcus aureus
From the text: as §1, §2

[4] = test system: S. aureus 1840; assay type: cell-based, Staphylococcus aureus
From the text: as §1, §2

[5] = test system: K. pneumoniae GN 3835; assay type: cell-based, Klebsiella pneumoniae
From the text: as §1, §2

[6] = test system: K. pneumoniae DT; assay type: cell-based, Klebsiella pneumoniae
From the text: as §1, §2

[7] = test system: P. mirabilis GN 4359; assay type: cell-based, Proteus mirabilis
From the text: as §1, §2

[8] = test system: S. marcescens TN 24; assay type: cell-based, Serratia marcescens
From the text: as §1, §2

[9] = test system: S. marcescens IFO 12648; assay type: cell-based, Serratia marcescens
From the text: as §1, §2

[10] = test system: E. coli NIHJ JC-2; assay type: cell-based, Escherichia coli
From the text: as §1, §2

[11] = test system: E. coli T-7; assay type: cell-based, Escherichia coli
From the text: as §1, §2

[12] = test system: P. morganii IFO 3168; assay type: cell-based, Proteus morganii
From the text: as §1, §2

[13] = test system: P. rettgeri GN4733; assay type: cell-based, Proteus rettgeri
From the text: as §1, §2

[14] = test system: P. rettgeri TN 338; assay type: cell-based, Proteus rettgeri
From the text: as §1, §2

[15] = test system: E. cloacae TN 1282; assay type: cell-based, Enterobacter cloacae
From the text: as §1, §2

[16] = test system: E. coli 0-111; assay type: cell-based, Escherichia coli
From the text: The minimal inhibitory concentrations (M.I.C.) of some representative cephalosporin derivatives of this invention as produced by the procedures described in those examples and the minimal inhibitory concentrations of cephalothin [sodium 7-(2-thienylacetamido)-3-acetoxymethyl-3-cephem-4-carboxylate], cephaloridine [7-(2-thienylacetamido)-3-(1-pyridyl)methyl-3-cephem-4-carboxylic acid betaine] and cefazolin [sodium 7-(1H-tetrazol-1-yl)acetamido-3-(2-methyl-1,3,4-thiadiazol-5-yl)thiomethyl-3-cephem-4-carboxylate], which are among the clinically established and commercially available cephalosporins (as described, for example, in the New England Journal of Medicine 294, 24, 1976 and Journal of Pharmaceutical Science 64, 1899, 1975), both against various bacteria, as well as the therapeutic effects of some respresentative cephalosporin derivatives of this invention and of cephaloridine in infected mice, are shown in tables.
as §1, §2

[17] = test system: C. freundii GN 99; assay type: cell-based, Citrobacter freundii
From the text: as §1, §2

[18] = test system: C. freundii GN 1706; assay type: cell-based, Citrobacter freundii
From the text: as §1, §2

Compound | minimal inhibitory concentration (M.I.C.) [1] | minimal inhibitory concentration (M.I.C.) [2] | minimal inhibitory concentration (M.I.C.) [3] | minimal inhibitory concentration (M.I.C.) [4] | minimal inhibitory concentration (M.I.C.) [5] | minimal inhibitory concentration (M.I.C.) [6] | minimal inhibitory concentration (M.I.C.) [7] | minimal inhibitory concentration (M.I.C.) [8] | minimal inhibitory concentration (M.I.C.) [9] | minimal inhibitory concentration (M.I.C.) [10] | minimal inhibitory concentration (M.I.C.) [11] | minimal inhibitory concentration (M.I.C.) [12] | minimal inhibitory concentration (M.I.C.) [13] | minimal inhibitory concentration (M.I.C.) [14] | minimal inhibitory concentration (M.I.C.) [15] | minimal inhibitory concentration (M.I.C.) [16] | minimal inhibitory concentration (M.I.C.) [17] | minimal inhibitory concentration (M.I.C.) [18]
CCCCNC(=O)O/N=C(\C(=O)NC1C(=O)N2C(C(=O)O)=C(COC(C)=O)CSC12)c1csc(=N)[nH]1 (stereo not drawn) [Example II - 20] | 0.2 | 12.5 | 1.56 | 1.56 | 0.39 | 0.05 | 0.1 | 12.5 | 6.25 | 0.1 | 3.13 | 0.39 | 0.05 | ≤ 0.012 | 6.25 | 0.024 | 0.39 | 0.39
CNC(=O)O/N=C(\C(=O)NC1C(=O)N2C(C(=O)O)=C(CSc3cnn[nH]3)CSC12)c1csc(=N)[nH]1 (stereo not drawn) [Example IV - 9] | 0.39 | 25 | 3.13 | 3.13 | 0.78 | ≤ 0.2 | 0.39 | 6.25 | 6.25 | 0.78 | 3.13 | 0.78 | 1.56 | ≤ 0.2 | 6.25 | ≤ 0.2 | 0.78 | 1.56
CCNC(=O)O/N=C(\C(=O)NC1C(=O)N2C(C(=O)O)=C(C)CSC12)c1csc(=N)[nH]1 (stereo not drawn) [Example II - 11] | 3.13 | 50 | 25 | 25 | 3.13 | 1.56 | 1.56 | 100 | 100 | 6.25 | 12.5 | 25 | 0.39 | 0.05 | 25 | 1.56 | 6.25 | 12.5
CCNC(=O)O/N=C(\C(=O)NC1C(=O)N2C(C(=O)O)=C(CSc3nnnn3C)CSC12)c1csc(=N)[nH]1 (stereo not drawn) [Example II - 9] | 0.2 | 25 | 1.56 | 3.13 | 0.78 | 0.1 | 0.39 | 3.13 | 3.13 | 0.39 | 3.13 | 1.56 | 0.2 | ≤ 0.012 | 6.25 | 0.05 | 0.2 | 0.78
